Reference: patent US12433876B2, “Septin inhibitors for treatment of cancers” (UNIVERSITY OF ROCHESTER, priority 2019, dated 2025)

Test system: Cullin-3
Experiment: Cell Cycle Antibody Array, PANC-1 cells
Type: cell-based
Conditions: normalized to GAPDH
Description: Cell Cycle Protein Expression. Cell Cycle Antibody Array (FullMoon BioSystems Inc, catalogue number: ACC:058), a high throughput ELISA based antibody array, designed for qualitative/semi-quantitative protein expression profiling was employed to investigate the protein changes after drug treatment. PANC-1 cells were lysed in buffer containing protease and phosphatase inhibitors (Cell Signaling, catalog number: 9803S). Total protein content was quantified by Bradford assay and equal amounts of proteins were analyzed in duplicate with arrays containing 4 to 6 spots for each of 60 probes (ACC058, Cell Cycle Antibody Array; Full Moon Biosystems, Sunnyvale, Calif.), according to manufacturer's instructions. After background correction, mean signal intensities were measured using FullMoon Inc's imaging services. Protein expressions in both the naïve and 328 treatment group was normalized to GAPDH signals. Confocal Analysis of Septin Disarrangement. To determine the impact of UR214-9 treatment on Septin-2 structure in cells, PANC-1 or JIMT-1 cells were seeded on glass slides and allowed to adhere overnight. The media was replaced with complete DMEM media supplemented with DMSO or UR214-9 (1 μM and 70 nM) and cells were incubated for 48 hours. […] The cells were stained with fluorescence linked secondary antibody for 1 hr under dark. […] Five cells were outlined and analyzed per field. […]

O=C(Nc1cc(Cl)nc(Cl)c1)Nc1cccc(SC(F)(F)F)c1F [UR214-9]
Cullin-3 expression, treated versus naïve: most pronounced upregulation
